{"source": "patent US20250213529A1", "about": "“5-METHOXY-N.N-[…][…] THE TREATMENT OF PSYCHOMOTOR RETARDATION” (GH RESEARCH IRELAND LIMITED, priority 2022, published 2025)", "key": {"[1]": {"test_system": "Salmonella typhimurium (TA98, TA100, TA1535 and TA1537)", "assay": "Bacterial mutation test, Salmonella typhimurium", "format": "cell-based", "conditions": "up to 5000 µg/plate; absence and presence of rat liver S-9", "text": "(§1) These conditions included treatments at concentrations up to […] (the maximum recommended concentration according to current regulatory guidelines), in the absence and in the presence of a rat liver metabolic activation system (S-9)."}, "[2]": {"test_system": "Escherichia coli (WP2 uvrA pKM101)", "assay": "Bacterial mutation test, Escherichia coli", "format": "cell-based", "conditions": "up to 5000 pg/plate; absence and presence of rat liver S-9", "text": "as §1"}, "[3]": {"assay": "Pharmacokinetics of 5-MeO-DMT and bufotenine after inhalation", "format": "in vivo, human", "conditions": "after 3 hours, 6, 12, 18 mg"}, "[4]": {"test_system": "patients with postpartum depression (PPD)", "assay": "Clinical trial in patients with postpartum depression", "conditions": "PPD patient (n=1); for Total MADRS improvement / Total MADRS score: baseline 29; for BPRS Tension improvement: baseline 6", "method": "The single-arm, open-label clinical trial will involve 15 adult female patients with clinically diagnosed postpartum depression (PPD).\nThe second dose (12 mg) will only be administered if: • a. […] The 6 mg dose was safe and well-tolerated according to the investigator, • c. Any psychoactive effects (PsE) of the prior dose have subsided, and • d. Pre-dose vital parameters and forced expiratory volume in one second (FEV1) are in normal range, or if outside of the normal range, are not clinically significant according to the investigator. • 3. Similarly, a third dose (18 mg) will only be administered if: • a. […] The 12 mg dose was safe and well-tolerated according to the investigator, and • c. Any PsE of the prior dose have subsided, and • d. Pre-dose vital parameters and forced expiratory volume in one second (FEV1) are in normal range, or if outside of the normal range, are not clinically significant according to the investigator.\nThe patients will be assessed for a peak psychedelic experience (based on a patient-scored visual analogue scale, the PE scale), sedation, and other endpoints after dosing. Follow-up visits are planned for Day 1, and Day 7 after the dosing day.\nThe following criteria must be met by all patients considered for clinical trial participation: • 1. Is female and in the age range between 18 and 45 years (inclusive) at screening. • 2. Has a body mass index (BMI) in the range of 18.5 and 35 kg/m^2 (inclusive) at screening. • 3. Meets the trial criteria for PPD as assessed by a trial psychiatrist or registered psychologist: • a. Diagnosis of Major Depressive Disorder without psychotic features, confirmed by the Mini-International Neuropsychiatric Interview (MINI), with peri-partum onset that began no earlier than gestation and no later than the first 4 weeks postpartum. • b. Has a Montgomery-Åsberg Depression Rating Scale (MADRS) total score of equal to or greater than 28 at screening and pre-dose on Day 0. • 6. […] Patients must have a negative pregnancy test at screening and on the pre-test day (Day −1). • 5. Is willing to delay start of other antidepressant or anxiety medication until after the end of the trial at Day 7 and agrees to keep any psychotherapy unchanged during the trial.\nA potential patient who meets any of the following key exclusion criteria will be excluded from participation in this trial: • 1. Has, based on history, psychiatric assessment, and evaluation of the MINI, a current or prior diagnosis of bipolar disorder, a manic or hypomanic episode, a psychotic disorder, Major Depressive Disorder (MDD) or other mood disorder with psychotic features, obsessive compulsive disorder, post-traumatic stress disorder (PTSD), autism spectrum disorder, borderline personality disorder, schizophrenia, delusional disorder, paranoid personality disorder, schizoaffective disorder, clinically significant intellectual disability, or any other psychiatric comorbidity that renders the patient unsuitable for the trial according to the investigator's judgment. • 2. Has one or more first or second degree relatives with a current or previously diagnosed bipolar disorder, psychotic disorder or other mood disorder (including MDD) with psychotic features. • 3. Is in the judgement of a trial psychiatrist or registered psychologist, at significant risk for suicide based on history, psychiatric assessment, and evaluation of suicidal ideation and suicidal behaviour based on the Columbia-Suicide Severity Rating Scale (C-SSRS). • 4. Has taken anti-depressive medication within 14 days or 5 half-lives (whichever is longer) prior to dosing (exception: within the last 5 weeks in the case of fluoxetine). • 5."}, "[5]": {"conditions": "IDR 6 then 12 mg inhaled, Day 0 score 5"}, "[6]": {"conditions": "IDR 6 then 12 mg inhaled, Day 0 score 6"}, "[7]": {"conditions": "IDR 6 then 12 mg inhaled, Day 1"}, "[8]": {"conditions": "IDR 6 then 12 mg inhaled, Day 7, Day 0 score 5"}, "[9]": {"conditions": "IDR 6 then 12 mg inhaled, Day 7, Day 0 score 6"}, "[10]": {"conditions": "IDR 6 then 12 mg inhaled, Day 7"}, "[11]": {"conditions": "IDR 6 then 12 mg inhaled, Day 7 vs Day 0"}}, "data": [{"smiles": "COc1ccc2[nH]cc(CCN(C)C)c2c1", "note": "[5-MeO-DMT]", "values": [{"measurement": "Induction of mutation", "setting": "[1]", "result": "did not induce mutation"}, {"measurement": "Induction of mutation", "setting": "[2]", "result": "did not induce mutation"}, {"measurement": "Detectability in plasma", "setting": "[3]", "result": "no longer detectable"}, {"measurement": "Tolerability of the inhalation procedure", "setting": "[4]", "result": "well tolerated with no inhalation-related adverse events"}, {"measurement": "Reported adverse events (cramping left abdominal pain and headache)", "setting": "[4]; Day 0", "result": "mild, short-lasting and resolved spontaneously"}, {"measurement": "BIMF total score improvement, percent", "setting": "[4]; Day 7, from 92 to 105", "result": 14, "unit": "%"}, {"measurement": "ECG, safety laboratory analyses, CADSS", "setting": "[4]; ECG 3 hours, laboratory 7 days, CADSS 3 hours, 1 day, 7 days", "result": "unremarkable"}, {"measurement": "MADRS remission (MADRS total score equal or less than 10)", "setting": "[4]; IDR 6 then 12 mg inhaled", "result": "fulfilled"}, {"measurement": "MADRS response (at least 50% improvement from baseline)", "setting": "[4]; IDR 6 then 12 mg inhaled", "result": "fulfilled"}, {"measurement": "Onset of clinical response after administration", "setting": "[4]; IDR 6 then 12 mg inhaled", "result": "≤ 2", "unit": "h"}, {"measurement": "Time to clinical remission after administration", "setting": "[4]; IDR 6 then 12 mg inhaled", "result": "≤ 2", "unit": "h"}, {"measurement": "Durability of clinical response", "setting": "[4]; IDR 6 then 12 mg inhaled, given once", "result": "sustained over the 7-day follow-up period"}, {"measurement": "Total MADRS improvement", "setting": "[4]; IDR 6 then 12 mg inhaled, 2 hr", "result": 24}, {"measurement": "Total MADRS score", "setting": "[4]; IDR 6 then 12 mg inhaled, 2 hr", "result": 5}, {"measurement": "BIMF item 19 (As time goes on, I am getting better at taking care of my baby) Δ (Day 7)", "setting": "[4]; IDR 6 then 12 mg inhaled, Day 0 score 0", "result": 1}, {"measurement": "BIMF item 13 (I am taking good care of my physical needs) Δ (Day 7)", "setting": "[4]; IDR 6 then 12 mg inhaled, Day 0 score 4", "result": 1}, {"measurement": "BIMF item 5 (I am able to relax and enjoy time with my baby) Δ (Day 7)", "setting": "[4]; [5]", "result": 1}, {"measurement": "BIMF item 9 (I am getting enough encouragement from other people) Δ (Day 7)", "setting": "[4]; [5]", "result": 1}, {"measurement": "BIMF item 10 (I trust my own feelings (instincts) when it comes to taking care of my baby) Δ (Day 7)", "setting": "[4]; [5]", "result": 1}, {"measurement": "BIMF item 11 (I take a little time each week to do something for myself) Δ (Day 7)", "setting": "[4]; [5]", "result": 1}, {"measurement": "BIMF item 17 (I am able to take care of my baby and my other responsibilities) Δ (Day 7)", "setting": "[4]; [5]", "result": 0}, {"measurement": "BIMF item 3 (I am comfortable with the way I've chosen to feed my baby) Δ (Day 7)", "setting": "[4]; [6]", "result": 0}, {"measurement": "BIMF item 6 (There are people in my life that I can trust to care for my baby when I need a break) Δ (Day 7)", "setting": "[4]; [6]", "result": 0}, {"measurement": "BIMF item 8 (I am getting enough adult interaction) Δ (Day 7)", "setting": "[4]; [6]", "result": 0}, {"measurement": "BIMF item 12 (I am taking good care of my baby's physical needs) Δ (Day 7)", "setting": "[4]; [6]", "result": 0}, {"measurement": "BIMF item 14 (I make good decisions about my baby's health and well being) Δ (Day 7)", "setting": "[4]; [6]", "result": 0}, {"measurement": "BIMF item 20 (I am satisfied with the job I am doing as a new mother) Δ (Day 7)", "setting": "[4]; [6]", "result": "−1"}, {"measurement": "BIMF TOTAL Δ (Day 7)", "setting": "[4]; IDR 6 then 12 mg inhaled, Day 0 score 92", "result": 13}, {"measurement": "BPRS Tension improvement", "setting": "[4]; [7]", "result": 5}, {"measurement": "Total MADRS improvement", "setting": "[4]; [7]", "result": 29}, {"measurement": "Total MADRS score", "setting": "[4]; [7]", "result": 0}, {"measurement": "BIMF item 19 (As time goes on, I am getting better at taking care of my baby) score", "setting": "[4]; IDR 6 then 12 mg inhaled, Day 7, Day 0 score 0", "result": 1}, {"measurement": "BIMF item 16 (I worry about how other people judge me (as a mother)) score", "setting": "[4]; IDR 6 then 12 mg inhaled, Day 7, Day 0 score 3", "result": 5}, {"measurement": "BIMF item 13 (I am taking good care of my physical needs) score", "setting": "[4]; IDR 6 then 12 mg inhaled, Day 7, Day 0 score 4", "result": 5}, {"measurement": "BIMF item 5 (I am able to relax and enjoy time with my baby) score", "setting": "[4]; [8]", "result": 6}, {"measurement": "BIMF item 9 (I am getting enough encouragement from other people) score", "setting": "[4]; [8]", "result": 6}, {"measurement": "BIMF item 10 (I trust my own feelings (instincts) when it comes to taking care of my baby) score", "setting": "[4]; [8]", "result": 6}, {"measurement": "BIMF item 11 (I take a little time each week to do something for myself) score", "setting": "[4]; [8]", "result": 6}, {"measurement": "BIMF item 17 (I am able to take care of my baby and my other responsibilities) score", "setting": "[4]; [8]", "result": 5}, {"measurement": "BIMF functional domain Adjustment score", "setting": "[4]; IDR 6 then 12 mg inhaled, Day 7, Day 0 score 5, maximum 12", "result": 6}, {"measurement": "BIMF item 3 (I am comfortable with the way I've chosen to feed my baby) score", "setting": "[4]; [9]", "result": 6}, {"measurement": "BIMF item 6 (There are people in my life that I can trust to care for my baby when I need a break) score", "setting": "[4]; [9]", "result": 6}, {"measurement": "BIMF item 8 (I am getting enough adult interaction) score", "setting": "[4]; [9]", "result": 6}, {"measurement": "BIMF item 12 (I am taking good care of my baby's physical needs) score", "setting": "[4]; [9]", "result": 6}, {"measurement": "BIMF item 14 (I make good decisions about my baby's health and well being) score", "setting": "[4]; [9]", "result": 6}, {"measurement": "BIMF item 20 (I am satisfied with the job I am doing as a new mother) score", "setting": "[4]; [9]", "result": 5}, {"measurement": "BIMF functional domain Self Care score", "setting": "[4]; IDR 6 then 12 mg inhaled, Day 7, Day 0 score 9, maximum 18", "result": 13}, {"measurement": "BIMF functional domain Infant Care score", "setting": "[4]; IDR 6 then 12 mg inhaled, Day 7, Day 0 score 12, maximum 12", "result": 12}, {"measurement": "BIMF functional domain Mother-Child Interaction score", "setting": "[4]; IDR 6 then 12 mg inhaled, Day 7, Day 0 score 15, maximum 18", "result": 17}, {"measurement": "BIMF functional domain Social Support score", "setting": "[4]; IDR 6 then 12 mg inhaled, Day 7, Day 0 score 17, maximum 18", "result": 18}, {"measurement": "BIMF functional domain Management score", "setting": "[4]; IDR 6 then 12 mg inhaled, Day 7, Day 0 score 28, maximum 36", "result": 33}, {"measurement": "BIMF functional domain Psychological Well-being score", "setting": "[4]; IDR 6 then 12 mg inhaled, Day 7, Day 0 score 44, maximum 60", "result": 53}, {"measurement": "Total MADRS improvement", "setting": "[4]; [10]", "result": 28}, {"measurement": "Total MADRS score", "setting": "[4]; [10]", "result": 1}, {"measurement": "BIMF functional domain Adjustment % Improvement", "setting": "[4]; [11]", "result": 20.00, "unit": "%"}, {"measurement": "BIMF functional domain Infant Care % Improvement", "setting": "[4]; [11]", "result": 0.00, "unit": "%"}, {"measurement": "BIMF functional domain Management % Improvement", "setting": "[4]; [11]", "result": 18, "unit": "%"}, {"measurement": "BIMF functional domain Self Care % Improvement", "setting": "[4]; [11]", "result": 44, "unit": "%"}, {"measurement": "BPRS Tension improvement", "setting": "[4]; IDR 6 then 12 mg inhaled, Discharge", "result": 5}, {"measurement": "PES score (intensity of the psychedelic experience)", "setting": "[4]; nominal dose of 6 mg inhaled", "result": 17.3}, {"measurement": "Changes in vital parameters", "setting": "[4]; shortly after administration", "result": "temporary, clinically non-relevant increase in heart rate and blood pressure"}, {"measurement": "PES score (intensity of the psychedelic experience)", "setting": "[4]; subsequent dose of 12 mg inhaled", "result": 85.7}]}]}
